Data published in PubChem BioAssay (NCI).
Values joined by “and” are separate entries in the source; they are usually repeats but may differ in a detail not shown here. Equal values may be shown once.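 Five compound concentrations were applied to cells in 96-well plates for 48 hours; endpoints were derived by simple linear interpolation of the resulting dose-response curve. GI50: concentration for 50% inhibition of growth. TGI denotes the concentration required for complete inhibition of growth.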

Assays:
Test in all cases: inhibition of tumour cell growth, NCI panel, 48 h
[1] = system: KM20L2 colon
[2] = system: DLD-1 colon
[3] = system: M19-MEL melanoma
[4] = system: MDA-MB-435
[5] = system: T-47D breast
[6] = system: NCI/ADR-RES ovarian
[7] = system: XF 498 CNS
[8] = system: MDA-N
[9] = system: RXF-631 renal

SMILES	TGI [1]	TGI [2] [µM]	TGI [3]	GI50 [4] [µM]	TGI [4] [µM]	GI50 [5] [µM]	TGI [5] [µM]	GI50 [6] [µM]	TGI [6] [µM]	TGI [7] [µM]	TGI [8] [µM]	TGI [9] [µM]	GI50 [3]
CN1OC(CO)CC12C1CC3CC(C1)CC2C3 (centres undefined)	> 100 µM	> 100	> 100 µM										
CCn1c(SC)nnc1-c1cc2c([nH]c3ccccc32)c(-c2cccc(O)c2)n1				0.248	0.851	1.78	22.5	3.71	36.1				
COc1cc2c(cc1OCCCN1CCN(CCCn3c4ccccc4c4ccccc43)CC1)N=C[C@@H]1CCCN1C2=O				0.0553	0.121	0.206	0.868	1.37	4.93				
N#Cc1c(N/N=C/c2c(Cl)cccc2Cl)nc(N)nc1N1CCCC1						> 100	> 100	1.5	6.98				
O=[N+]([O-])C1(CO)COC(CCc2ccccc2)OC1 (centres undefined)	> 100 µM	> 100	> 100 µM							> 100			
O=C1COc2c(CCNCCN(C(=O)CCNCCc3ccc(Cl)c(Cl)c3)C3CCCCC3)ccc(O)c2N1				14.9	28.5	17.3	40.1	> 100	> 100				
Cc1ccc(S(=O)(=O)NCc2cccc([N+](=O)[O-])c2)cc1					> 100		> 100		> 100		> 100		
COC(=O)C(NC(=O)c1ccccc1)c1ccc(OC)c(I)c1 (centres undefined)				39.6	> 100	36.6	> 100	36.4	> 100				
O=C(NCc1cccnc1)c1ccc([N+](=O)[O-])o1				1.03	4.06	6.9	32.4	1.66	23.9				
c1csc(-c2[nH]nc3c2CCc2ccccc2-3)c1				19.2	42.6	0.17	0.515	17.7	49.3				
O=C1C(=O)c2c(ccc3ccccc23)-c2ccccc21				1.59	3.52	1.75	3.96	1.19	5.88				
O=C(COC(=O)[C@H](C[Se][Se]C[C@H](NC(=O)c1ccc(Br)cc1F)C(=O)OCC(=O)c1ccc(F)cc1)NC(=O)c1ccc(Br)cc1F)c1ccc(F)cc1				1.89	4.3	1.41	4.08	0.821	2.39				
O=[N+]([O-])c1cccc(C2=NOC3CCCC23)c1 (centres undefined)		> 100	> 100 µM										
CCOC(=O)NC/C=C/CO	> 100 µM	> 100	> 100 µM									> 100	
O=C(CO[N+](=O)[O-])OCC(=O)c1ccccc1	> 100 µM	> 100	> 100 µM									> 100	
Clc1ccc(N=CNc2ccc(-c3nc4ccccc4[nH]3)cc2)cc1				6.88	> 100	42.6	> 100						
Cc1cc2c(SCc3ccccc3Cl)nc(N)nc2nc1C					> 100		> 100		> 100		> 100		

SMILES	TGI [1]	TGI [2] [µM]	TGI [3]	GI50 [4] [µM]	TGI [4] [µM]	GI50 [5] [µM]	TGI [5] [µM]	GI50 [6] [µM]	TGI [6] [µM]	TGI [7] [µM]	TGI [8] [µM]	TGI [9] [µM]	GI50 [3]
Cc1cc(C2(c3cc(C)c(O)c4ncccc34)OC(=O)c3ccccc32)c2cccnc2c1O					> 100			0.0138	17.1		> 100		
O=C(Nc1cccc(C(F)(F)F)c1)Nc1ccc(OCc2nnc(-c3ccccc3)o2)c(F)c1				7.51	89.8	2.44	16.1	4.61	26.9				
Nc1nc(N)c(-c2ccccc2)c(C(=O)Nc2nccs2)n1	> 100 µM	> 100	> 100 µM									> 100	
Cn1c(=O)c(-c2c(Cl)cccc2Cl)cc2cnc(Nc3ccc(N4CCOCC4)cc3)nc21						0.598	9.77	0.0158	0.09				
O=C1OC(c2ccccc2)=N/C1=C\c1ccc(N(CCCl)CCCl)cc1					> 100		> 84.8		> 100		> 100		
O=C1NC2(CCCCC2)C2=C1CCCCC2		> 100	> 100 µM							> 100			
CC1CC2C(=O)N(c3ccccc3)C(=O)C2c2[nH]c3ccccc3c21 (centres undefined)		> 100	> 100 µM									> 100	
CCNC(=O)O/N=C1/C=C2CC[C@@H]3C(CC[C@@]4(C)C3CC[C@@H]4OC(=O)NCC)[C@@]2(C)CC1 (some centres undefined)	5.15 µM	> 100	10.3 µM										
Cc1c(-c2ccc(N3CCc4cccc(C(=O)Nc5nc6ccccc6s5)c4C3)nc2C(=O)O)cnn1CC12CC3CC(CC(C3)C1)C2				6.77	28.3	6.59	30.7	14.7	38				
Cn1c(=O)c(Oc2ccc(F)cc2F)cc2cnc(NC3CCC(O)CC3)nc21 (centres undefined)				> 25	> 25	> 25	> 25	> 25	> 25				
Cc1c2cc[n+](C)cc2c(C)c2c1[nH]c1ccc(Oc3ccccc3)cc12	23 µM and > 52.3 µM	> 100	24.5 µM and > 100 µM										2.56 µM and 3.23 µM
Cc1c(N)nc(C2CC(=O)N2CC(N)C(N)=O)nc1C(=O)NC(C(=O)NC(C)C(O)C(C)C(=O)NC(C(=O)NCCc1nc(-c2nc(C(=O)NCCNCC(C)O)cs2)cs1)C(C)O)C(OC1OC(CO)C(O)C(O)C1OC1OC(CO)C(O)C(OC(N)=O)C1O)c1cnc[nH]1 (centres undefined)	> 100 µM	> 100	> 57.6 µM		36.4		> 5		50	> 22.4	> 50		
COc1cc(COC(=O)NC(Cc2cccs2)C(=O)O)c([N+](=O)[O-])cc1OC (centres undefined)					> 100		> 100		> 100		> 100		
CCC(=C(c1ccc(OCCN(CC)CC)cc1)c1ccc(OCCN(CC)CC)cc1)c1ccc(Cl)cc1				0.578	1.07	0.574	1.39	0.625	1.21				
CN1C/C(=C\c2ccco2)c2nc(N)nc(-c3ccco3)c2C1	> 100 µM	> 100	> 100 µM							90.2			
Nc1ccc2ncc(Nc3ccc(Cl)c(Cl)c3)nc2c1	> 100 µM	> 100	47.4 µM							60.8			
